Experimental data taken from patent US20110230403A1, “GLYCOSIDE DERIVATIVES AND USES THEREOF” (NOVARTIS AG, priority 2008, published 2011).

What was measured:
[1] = molecular target: T1, human sodium glucose cotransporter 2 (Homo sapiens, UniProt P31639); test: SGLT-2 assay: 14C-AMG uptake in CHO-hSGLT2 or HEK293-hSGLT2 cells; type: cell-based; conditions: n = 1-4, hSGLT2-transfected cells, read-out: SGLT2 IC50 nM (n = 1-4)
T1 construct: expressed in transfected cells; host or cells: CHO-K1 (ATCC CCL-61) or HEK293 (ATCC CRL-1573), stably transfected with pZeoSV expression vector
T1 sequence (P31639 1-672): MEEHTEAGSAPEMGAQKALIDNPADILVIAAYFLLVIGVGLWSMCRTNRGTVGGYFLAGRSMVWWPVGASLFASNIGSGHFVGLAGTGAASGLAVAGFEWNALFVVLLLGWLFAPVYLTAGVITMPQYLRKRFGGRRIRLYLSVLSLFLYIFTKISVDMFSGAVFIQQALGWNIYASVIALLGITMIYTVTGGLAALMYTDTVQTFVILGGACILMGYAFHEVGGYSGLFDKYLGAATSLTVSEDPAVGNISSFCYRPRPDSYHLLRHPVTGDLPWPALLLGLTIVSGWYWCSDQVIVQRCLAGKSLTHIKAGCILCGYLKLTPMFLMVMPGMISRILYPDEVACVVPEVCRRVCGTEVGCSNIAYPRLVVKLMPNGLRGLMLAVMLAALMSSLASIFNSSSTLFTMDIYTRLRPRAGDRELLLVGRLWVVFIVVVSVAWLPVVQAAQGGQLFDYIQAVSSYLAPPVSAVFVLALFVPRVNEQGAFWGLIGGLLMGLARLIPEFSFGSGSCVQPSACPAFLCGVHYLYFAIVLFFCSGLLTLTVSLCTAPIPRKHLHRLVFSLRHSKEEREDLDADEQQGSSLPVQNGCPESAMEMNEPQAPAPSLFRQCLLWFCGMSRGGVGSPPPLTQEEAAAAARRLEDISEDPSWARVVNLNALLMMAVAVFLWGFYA
Experimental: These cell lines transport 14 C-labelled alpha-methyl-glucopyranoside (14 C-AMG, Amersham) into the interior of the cell in sodium-dependent manner.
The SGLT-2 assay is carried out as follows: CHO-hSGLT2 cells are cultivated in Ham's F12 Medium (BioWhittaker) with 10% foetal calf serum and 250 μg/mL zeocin (Invitrogen), and HEK293-hSGLT2 cells are cultivated in DMEM medium with 10% foetal calf serum and 250 μg/mL zeocin (Invitrogen). The cells are detached from the culture flasks by washing twice with PBS and subsequently treating with trypsin/EDTA. After the addition of cell culture medium the cells are centrifuged, resuspended in culture medium and counted in a Casy cell counter. Then 40,000 cells per well are seeded into a white, 96-well plate coated with poly-D-Iysine and incubated overnight at 37° C., 5% CO2. The cells are washenwice with 250 μl of assay buffer (Hanks Balanced Salt Solution, 137 mM NaCl, 5.4 mM KCl, 2.8 mM CaCl2, 1.2 mM MgSO4 and 10 mM HEPES (pH 7.4), 50 μg/mL of gentamycin). 250 μl of assay buffer and 5 μl of test compound are then added to each well and the plate is incubated for a further 15 minutes in the incubator. 5 μl of 10% DMSO are used as the negative control. The reaction is started by adding 5 μl of 14 C-AMG (0.05 μCi) to each well. After 2 hours' incubation at 37° C., 5% CO2, the cells are washed again with 250 μl of PBS (200C) and then lysed by the addition of 25 μl of 0.1 N NaOH (5 min. at 37° C.). 200 μl of MicroScint20 (Packard) are added to each well and incubation is continued for a further 20 min at 37° C. After this incubation the radioactivity of the 14 C-AMG absorbed is measured in a Topcount (Packard) using a 14 C scintillation program.

[2] = molecular target: T2, human SGLT1 (Homo sapiens, UniProt P13866); test: hSGLT1 assay: analogous [14C]-AMG uptake in CHO-K1 or HEK293 cells expressing hSGLT1; type: cell-based; conditions: n = 1-4, hSGLT1-transfected cells
T2 construct: expressed in transfected cells; host or cells: CHO-K1 or HEK293 cells
T2 sequence (P13866 1-664): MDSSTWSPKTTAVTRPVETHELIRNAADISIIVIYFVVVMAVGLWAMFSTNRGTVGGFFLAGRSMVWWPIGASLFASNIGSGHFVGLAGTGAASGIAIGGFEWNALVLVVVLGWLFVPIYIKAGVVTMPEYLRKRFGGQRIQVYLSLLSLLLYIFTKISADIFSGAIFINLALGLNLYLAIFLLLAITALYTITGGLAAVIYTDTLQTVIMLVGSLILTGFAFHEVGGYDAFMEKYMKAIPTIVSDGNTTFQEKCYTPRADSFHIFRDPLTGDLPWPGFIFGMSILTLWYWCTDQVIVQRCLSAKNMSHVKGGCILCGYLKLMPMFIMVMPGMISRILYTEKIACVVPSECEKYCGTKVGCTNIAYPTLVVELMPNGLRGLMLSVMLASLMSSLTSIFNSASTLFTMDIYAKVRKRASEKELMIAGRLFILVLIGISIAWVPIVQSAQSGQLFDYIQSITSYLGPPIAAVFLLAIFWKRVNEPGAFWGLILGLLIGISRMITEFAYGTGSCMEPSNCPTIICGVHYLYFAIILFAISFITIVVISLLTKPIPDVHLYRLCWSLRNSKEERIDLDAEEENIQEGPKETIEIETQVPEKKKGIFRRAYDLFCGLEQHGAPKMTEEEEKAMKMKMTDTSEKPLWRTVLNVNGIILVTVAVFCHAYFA
Experimental: To determine human SGLT1 inhibitory activity, an analogous test was set up in which the cDNA for hSGLTI (Genbank Ace. No. NM000343) instead of hSGLT2 cDNA is expressed in CHO-K1 or HEK293 cells. The uptake assay buffer in the case of the hSGLT1 assay contains 10 mM HEPES, 5 mM Tris, 140 mM NaCl, 2 mM KCl, 1 mM CaCl2, and 1 mM MgCl2, pH 7.4 containing 0.5 mM of α-methyl-D-glucopyranoside (AMG), 10 μM of [^14C]-α-methyl-D-glucopyranoside and different inhibitor concentrations.

## CCOc1ccc(Cc2cc([C@@H]3O[C@H](CSc4cc(C(=O)N5CCC5)ccc4F)[C@@H](O)[C@H](O)[C@H]3O)ccc2Cl)cc1 [Example 37, Azetidin-1-yl-(3-{(2S,3S,4R,5R,6S)-6-[4-chloro-3-(4-ethoxy-benzyl)-phenyl]-3,4,5-trihydroxy-tetrahydro-pyran-2-ylmethylsulfanyl}-4-fluoro-phenyl)-methanone]
[1]
  IC50: 3 nM
[2]
  IC50: < 50 nM

## CCOc1ccc(Cc2cc([C@@H]3O[C@H](CSc4cccc(C(=O)NC)c4)[C@@H](O)[C@H](O)[C@H]3O)ccc2Cl)cc1 [Example 40, 3-{(2S,3S,4R,5R,6S)-6-[4-Chloro-3-(4-ethoxy-benzyl)-phenyl]-3,4,5-trihydroxy-tetrahydro-pyran-2-ylmethylsulfanyl}-N-methyl-benzamide]
[1]
  IC50: 13 nM
[2]
  IC50: < 50 nM

## CCOc1ccc(Cc2cc([C@@H]3O[C@H](CSc4cccc(C(=O)N5CCCC5)c4)[C@@H](O)[C@H](O)[C@H]3O)ccc2Cl)cc1 [Example 47, (3-{(2S,3S,4R,5R,6S)-6-[4-Chloro-3-(4-ethoxy-benzyl)-phenyl]-3,4,5-trihydroxy-tetrahydro-pyran-2-ylmethylsulfanyl}-phenyl)-pyrrolidin-1 yl-methanone]
[1]
  IC50: 14 nM
[2]
  IC50: < 50 nM

## CCOc1ccc(Cc2cc([C@@H]3O[C@H](CSc4cccc(C(=O)N(C)C)c4)[C@@H](O)[C@H](O)[C@H]3O)ccc2Cl)cc1 [Example 50, 3-{(2S,3S,4R,5R,6S)-6-[4-Chloro-3-(4-ethoxy-benzyl)-phenyl]-3,4,5-trihydroxy-tetrahydro-pyran-2-ylmethylsulfanyl}-N,N-dimethyl-benzamide]
[1]
  IC50: 8 nM
[2]
  IC50: < 50 nM

## CCOc1ccc(Cc2cc([C@@H]3O[C@H](CSc4cccc(C(N)=O)c4)[C@@H](O)[C@H](O)[C@H]3O)ccc2Cl)cc1 [Example 78, 3-{(2S,3S,4R,5R,6S)-6-[4-Chloro-3-(4-ethoxy-benzyl)-phenyl]-3,4,5-trihydroxy-tetrahydro-pyran-2-ylmethylsulfanyl}-benzamide]
[1]
  IC50: 42 nM
[2]
  IC50: < 100 nM

## CCOc1ccc(Cc2cc([C@@H]3O[C@H](CSc4cccc(NC(C)=O)c4)[C@@H](O)[C@H](O)[C@H]3O)ccc2Cl)cc1 [Example 80, N-(3-{(2S,3S,4R,5R,6S)-6-[4-Chloro-3-(4-ethoxy-benzyl)-phenyl]-3,4,5-trihydroxy-tetrahydro-pyran-2-ylmethylsulfanyl}-phenyl)-acetamide]
[1]
  IC50: 13 nM
[2]
  IC50: < 100 nM
